In article PMC8621193, “In Vitro Evaluation of a Solid Supersaturated Self Nanoemulsifying Drug Delivery System (Super-SNEDDS) of Aprepitant for Enhanced Solubility” (Pharmaceuticals, 2021):
Converted amounts (≈) assume the structure as drawn. Read-outs that look alike come from different tables or passages of the source.

How the values were obtained:
[1] = Equilibrium (apparent) solubility of APR, shake flask method; format: physicochemical; conditions: for solubility at 24 h: thermodynamic from solid
Protocol: The solubility of APR in various buffers, oils, surfactants, cosurfactants, cosolvents, and formulations was measured using the shake flask method. Briefly, an excess APR was added into a polypropylene tube that contains a medium. Tube mixed by a vortex (Daihan VM-10, South Korea) for 1 min to disperse APR. Mixtures were shaken at 100 rpm for 24 h at various temperatures in a thermostatically controlled shaking water bath (Nüve ST30, Turkey). Mixtures were then centrifuged at 13,500 rpm (12,225× g) for 15 min. The supernatant samples were suitably diluted with the mobile phase. Drug concentration was obtained via the validated HPLC method.
Saturated SNEDDS were prepared by adding excess APR into blank preconcentrates and then precipitate the insoluble part of APR. Briefly, SNEDDS and excess APR mixtures were shaken at 100 rpm for 24 h at 37 °C in a shaking water bath. Mixtures were then centrifuged at 13,500 rpm (12,225× g) for 15 min. The supernatant was separated carefully to obtain saturated SNEDDS.

[2] = cited from earlier work
[3] = cited from earlier work; remark: listed apart in the source

C[C@@H](O[C@H]1OCCN(Cc2nc(=O)[nH][nH]2)[C@H]1c1ccc(F)cc1)c1cc(C(F)(F)F)cc(C(F)(F)F)c1 [APR, 5-(((2R,3S)-2-((1R)-1-(3,5-bis(trifluoromethyl)phenyl)ethoxy)-3-(4-fluorophenyl)4-morpholinyl)methyl)-1,2-dihydro-3H-1,2,4-triazol-3-one]
solubility at 24 h ([1]; 37 °C, organic solvent or mixture, Imwitor 988:Kolliphor RH40:Transcutol P (%) 20:60:20, 37 °C, read-out: APR solubility (loading capacity of SNEDDS preconcentrate)): 21600 µg/mL (≈ 40.5 mM)
solubility at 24 h ([1]; 37 °C, organic solvent or mixture, Imwitor 988:Kolliphor RH40:Transcutol P (%) 30:10:60, 37 °C, read-out: APR solubility (loading capacity of SNEDDS preconcentrate)): 55300 µg/mL (≈ 104 mM)
solubility at 24 h ([1]; Brij O10 (surfactant), 25 °C, aqueous with cosolvent or surfactant or cyclodextrin, surfactant Brij O10, 25 °C, read-out: APR solubility): 9870 µg/mL (≈ 18.5 mM)
solubility at 24 h ([1]; Capryol 90 (cosurfactant), 25 °C, organic solvent or mixture, cosurfactant Capryol 90, 25 °C, read-out: APR solubility): 17000 µg/mL (≈ 31.8 mM)
solubility at 24 h ([1]; Castor oil (oily excipient), 25 °C, oil or lipid, oily excipient Castor oil, 25 °C, read-out: APR solubility): 2920 µg/mL (≈ 5.47 mM)
solubility at 24 h ([1]; Cinnamon oil (oily excipient), 25 °C, oil or lipid, oily excipient Cinnamon oil, 25 °C, read-out: APR solubility): 8470 µg/mL (≈ 15.8 mM)
solubility at 24 h ([1]; Eucalyptus oil (oily excipient), 25 °C, oil or lipid, oily excipient Eucalyptus oil, 25 °C, read-out: APR solubility): 6840 µg/mL (≈ 12.8 mM)
solubility at 24 h ([1]; Glycerine (cosolvent), 25 °C, organic solvent or mixture, cosolvent Glycerine, 25 °C, read-out: APR solubility): 13 µg/mL (≈ 0.0243 mM)
solubility at 24 h ([1]; Imwitor 988 (oily excipient), 25 °C, oil or lipid, oily excipient Imwitor 988, 25 °C, read-out: APR solubility): 19800 µg/mL (≈ 37 mM)
solubility at 24 h ([1]; Kolliphor ELP (surfactant), 25 °C, aqueous with cosolvent or surfactant or cyclodextrin, surfactant Kolliphor ELP, 25 °C, read-out: APR solubility): 4230 µg/mL (≈ 7.92 mM)
solubility at 24 h ([1]; Kolliphor HS15 (surfactant), 25 °C, aqueous with cosolvent or surfactant or cyclodextrin, surfactant Kolliphor HS15, 25 °C, read-out: APR solubility): 7160 µg/mL (≈ 13.4 mM)
solubility at 24 h ([1]; Kolliphor RH40 (surfactant), 25 °C, aqueous with cosolvent or surfactant or cyclodextrin, surfactant Kolliphor RH40, 25 °C, read-out: APR solubility): 8980 µg/mL (≈ 16.8 mM)
solubility at 24 h ([1]; Kollisolv GTA (oily excipient), 25 °C, oil or lipid, oily excipient Kollisolv GTA, 25 °C, read-out: APR solubility): 3150 µg/mL (≈ 5.89 mM)
solubility at 24 h ([1]; Kollisolv P124 (surfactant), 25 °C, aqueous with cosolvent or surfactant or cyclodextrin, surfactant Kollisolv P124, 25 °C, read-out: APR solubility): 10700 µg/mL (≈ 20 mM)
solubility at 24 h ([1]; Labrafac PG (oily excipient), 25 °C, oil or lipid, oily excipient Labrafac PG, 25 °C, read-out: APR solubility): 427 µg/mL (≈ 0.799 mM)
solubility at 24 h ([1]; Labrafac lipophile WL 1349 (oily excipient), 25 °C, oil or lipid, oily excipient Labrafac lipophile WL 1349, 25 °C, read-out: APR solubility): 282 µg/mL (≈ 0.528 mM)
solubility at 24 h ([1]; Labrafil M 1944 CS (surfactant), 25 °C, aqueous with cosolvent or surfactant or cyclodextrin, surfactant Labrafil M 1944 CS, 25 °C, read-out: APR solubility): 3500 µg/mL (≈ 6.55 mM)
solubility at 24 h ([1]; Labrafil M 2125 CS (surfactant), 25 °C, aqueous with cosolvent or surfactant or cyclodextrin, surfactant Labrafil M 2125 CS, 25 °C, read-out: APR solubility): 2840 µg/mL (≈ 5.32 mM)
solubility at 24 h ([1]; Labrasol (surfactant), 25 °C, aqueous with cosolvent or surfactant or cyclodextrin, surfactant Labrasol, 25 °C, read-out: APR solubility): 15900 µg/mL (≈ 29.8 mM)
solubility at 24 h ([1]; Lauroglycol 90 (cosurfactant), 25 °C, organic solvent or mixture, cosurfactant Lauroglycol 90, 25 °C, read-out: APR solubility): 9320 µg/mL (≈ 17.4 mM)
solubility at 24 h ([1]; Lauroglycol FCC (cosurfactant), 25 °C, organic solvent or mixture, cosurfactant Lauroglycol FCC, 25 °C, read-out: APR solubility): 14200 µg/mL (≈ 26.6 mM)
solubility at 24 h ([1]; Lemon oil (oily excipient), 25 °C, oil or lipid, oily excipient Lemon oil, 25 °C, read-out: APR solubility): 3090 µg/mL (≈ 5.79 mM)
solubility at 24 h ([1]; Maisine CC (oily excipient), 25 °C, oil or lipid, oily excipient Maisine CC, 25 °C, read-out: APR solubility): 5360 µg/mL (≈ 10 mM)
solubility at 24 h ([1]; Miglyol 812 (oily excipient), 25 °C, oil or lipid, oily excipient Miglyol 812, 25 °C, read-out: APR solubility): 299 µg/mL (≈ 0.559 mM)
solubility at 24 h ([1]; Miglyol 840 (oily excipient), 25 °C, oil or lipid, oily excipient Miglyol 840, 25 °C, read-out: APR solubility): 1590 µg/mL (≈ 2.97 mM)
solubility at 24 h ([1]; Oleic acid (oily excipient), 25 °C, oil or lipid, oily excipient Oleic acid, 25 °C, read-out: APR solubility): 8480 µg/mL (≈ 15.9 mM)
solubility at 24 h ([1]; Olive Yağı (oily excipient), 25 °C, oil or lipid, oily excipient Olive Yağı, 25 °C, read-out: APR solubility): 181 µg/mL (≈ 0.339 mM)
solubility at 24 h ([1]; PEG 200 (cosolvent), 25 °C, organic solvent or mixture, cosolvent PEG 200, 25 °C, read-out: APR solubility): 11700 µg/mL (≈ 21.9 mM)
solubility at 24 h ([1]; PEG 400 (cosolvent), 25 °C, organic solvent or mixture, cosolvent PEG 400, 25 °C, read-out: APR solubility): 12000 µg/mL (≈ 22.5 mM)
solubility at 24 h ([1]; Peceol (oily excipient), 25 °C, oil or lipid, oily excipient Peceol, 25 °C, read-out: APR solubility): 7780 µg/mL (≈ 14.5 mM)
solubility at 24 h ([1]; Peppermint oil (oily excipient), 25 °C, oil or lipid, oily excipient Peppermint oil, 25 °C, read-out: APR solubility): 16600 µg/mL (≈ 31 mM)
solubility at 24 h ([1]; Plurol Oleique CC 497 (cosurfactant), 25 °C, organic solvent or mixture, cosurfactant Plurol Oleique CC 497, 25 °C, read-out: APR solubility): 4140 µg/mL (≈ 7.75 mM)
solubility at 24 h ([1]; Propylene glycol (cosolvent), 25 °C, organic solvent or mixture, cosolvent Propylene glycol, 25 °C, read-out: APR solubility): 8380 µg/mL (≈ 15.7 mM)
solubility at 24 h ([1]; Sesame oil (oily excipient), 25 °C, oil or lipid, oily excipient Sesame oil, 25 °C, read-out: APR solubility): 2230 µg/mL (≈ 4.17 mM)
solubility at 24 h ([1]; Transcutol P (cosolvent), 25 °C, organic solvent or mixture, cosolvent Transcutol P, 25 °C, read-out: APR solubility): 46500 µg/mL (≈ 87 mM)
solubility at 24 h ([1]; Tween 20 (surfactant), 25 °C, aqueous with cosolvent or surfactant or cyclodextrin, surfactant Tween 20, 25 °C, read-out: APR solubility): 7820 µg/mL (≈ 14.6 mM)
solubility at 24 h ([1]; Tween 60 (surfactant), 25 °C, aqueous with cosolvent or surfactant or cyclodextrin, surfactant Tween 60, 25 °C, read-out: APR solubility): 5040 µg/mL (≈ 9.44 mM)
solubility at 24 h ([1]; Tween 80 (surfactant), 25 °C, aqueous with cosolvent or surfactant or cyclodextrin, surfactant Tween 80, 25 °C, read-out: APR solubility): 2140 µg/mL (≈ 4 mM)
solubility at 24 h ([1]; blank SNEDDS preconcentrate, 37 °C, organic solvent or mixture, Imwitor 988:Kolliphor RH40:Transcutol P (%) 10:30:60, 37 °C, read-out: APR solubility (loading capacity of SNEDDS preconcentrate)): 43100 µg/mL (≈ 80.7 mM)
solubility at 24 h ([1]; blank SNEDDS preconcentrate, 37 °C, organic solvent or mixture, Imwitor 988:Kolliphor RH40:Transcutol P (%) 10:40:50, 37 °C, read-out: APR solubility (loading capacity of SNEDDS preconcentrate)): 34600 µg/mL (≈ 64.7 mM)
solubility at 24 h ([1]; blank SNEDDS preconcentrate, 37 °C, organic solvent or mixture, Imwitor 988:Kolliphor RH40:Transcutol P (%) 10:50:40, 37 °C, read-out: APR solubility (loading capacity of SNEDDS preconcentrate)): 26900 µg/mL (≈ 50.4 mM)
solubility at 24 h ([1]; blank SNEDDS preconcentrate, 37 °C, organic solvent or mixture, Imwitor 988:Kolliphor RH40:Transcutol P (%) 10:60:30, 37 °C, read-out: APR solubility (loading capacity of SNEDDS preconcentrate)): 22900 µg/mL (≈ 42.9 mM)
solubility at 24 h ([1]; blank SNEDDS preconcentrate, 37 °C, organic solvent or mixture, Imwitor 988:Kolliphor RH40:Transcutol P (%) 10:70:20, 37 °C, read-out: APR solubility (loading capacity of SNEDDS preconcentrate)): 18800 µg/mL (≈ 35.2 mM)
solubility at 24 h ([1]; blank SNEDDS preconcentrate, 37 °C, organic solvent or mixture, Imwitor 988:Kolliphor RH40:Transcutol P (%) 10:80:10, 37 °C, read-out: APR solubility (loading capacity of SNEDDS preconcentrate)): 15500 µg/mL (≈ 28.9 mM)
solubility at 24 h ([1]; blank SNEDDS preconcentrate, 37 °C, organic solvent or mixture, Imwitor 988:Kolliphor RH40:Transcutol P (%) 20:10:70, 37 °C, read-out: APR solubility (loading capacity of SNEDDS preconcentrate)): 51000 µg/mL (≈ 95.4 mM)
solubility at 24 h ([1]; blank SNEDDS preconcentrate, 37 °C, organic solvent or mixture, Imwitor 988:Kolliphor RH40:Transcutol P (%) 20:40:40, 37 °C, read-out: APR solubility (loading capacity of SNEDDS preconcentrate)): 29000 µg/mL (≈ 54.3 mM)
solubility at 24 h ([1]; blank SNEDDS preconcentrate, 37 °C, organic solvent or mixture, Imwitor 988:Kolliphor RH40:Transcutol P (%) 20:50:30, 37 °C, read-out: APR solubility (loading capacity of SNEDDS preconcentrate)): 23500 µg/mL (≈ 44 mM)
solubility at 24 h ([1]; blank SNEDDS preconcentrate, 37 °C, organic solvent or mixture, Imwitor 988:Kolliphor RH40:Transcutol P (%) 20:70:10, 37 °C, read-out: APR solubility (loading capacity of SNEDDS preconcentrate)): 15800 µg/mL (≈ 29.6 mM)
solubility at 24 h ([1]; blank SNEDDS preconcentrate, 37 °C, organic solvent or mixture, Imwitor 988:Kolliphor RH40:Transcutol P (%) 30:20:50, 37 °C, read-out: APR solubility (loading capacity of SNEDDS preconcentrate)): 45100 µg/mL (≈ 84.3 mM)
solubility at 24 h ([1]; blank SNEDDS preconcentrate, 37 °C, organic solvent or mixture, Imwitor 988:Kolliphor RH40:Transcutol P (%) 30:60:10, 37 °C, read-out: APR solubility (loading capacity of SNEDDS preconcentrate)): 17000 µg/mL (≈ 31.9 mM)
solubility at 24 h ([1]; buffer pH 1.2, 37 °C, pH 1.2, simulated gastric fluid, buffer pH 1.2, 37 °C, 24 h, read-out: APR solubility): 15.6 µg/mL (≈ 0.0293 mM)
solubility at 24 h ([1]; buffer pH 4.5, 37 °C, pH 4.5, aqueous buffer, buffer pH 4.5, 37 °C, 24 h, read-out: APR solubility): 0.79 µg/mL (≈ 0.00148 mM)
APR solubility ([1]; buffer pH 6.8, 37 °C, 24 h): < LOD
APR solubility ([1]; buffer pH 7.4, 37 °C, 24 h): < LOD
solubility in acetonitrile ([2]; acetonitrile): slightly soluble
logP ([2]; at neutral pH): 4.8
permeability [2]: moderate
solubility in ethanol ([2]; ethanol): sparingly soluble
solubility in isopropyl acetate ([2]; isopropyl acetate): sparingly soluble
pKa ([2]; ref 5): 9.7
Biopharmaceutical Classification System (BCS) class ([2]; ref 7): Class II
Biopharmaceutical Classification System (BCS) class ([2]; ref 8): Class IV
solubility in water ([2]; water): practically insoluble
mean oral bioavailability ([3]; 80 mg Emend capsule): 67%
mean oral bioavailability ([3]; 125 mg Emend capsule): 59%
time to maximum plasma concentration (Tmax) ([3]; in vivo): 4 h
time of mean peak plasma concentration ([3]; ref 14): approximately 4 h
